Reference: ChEMBL document CHEMBL1201862, “PubChem BioAssay data set” (2004)
Active and inactive are the calls of the source.

Experiments:
[1] = human group III sPLA2 inhibitors, dose response, biochemical, QFRET, IC50 (AID 743457);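 also: green fluorescence rise as the enzyme cleaves BODIPY PC-A2 in liposomes; potency for inhibition of the enzyme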
[2] = cells; type: functional, cell-based
[3] = cells; type: functional, cell-based; remark: listed apart in the source
[4] = molecular target: T1, Trace amine-associated receptor 1 (Homo sapiens, UniProt Q96RJ0); experiment: Fluorescence-based cell-based high throughput dose response assay to identify agonists of the human trace amine associated receptor 1 (TAAR1).; type: functional
T1 sequence (Q96RJ0 whole entry): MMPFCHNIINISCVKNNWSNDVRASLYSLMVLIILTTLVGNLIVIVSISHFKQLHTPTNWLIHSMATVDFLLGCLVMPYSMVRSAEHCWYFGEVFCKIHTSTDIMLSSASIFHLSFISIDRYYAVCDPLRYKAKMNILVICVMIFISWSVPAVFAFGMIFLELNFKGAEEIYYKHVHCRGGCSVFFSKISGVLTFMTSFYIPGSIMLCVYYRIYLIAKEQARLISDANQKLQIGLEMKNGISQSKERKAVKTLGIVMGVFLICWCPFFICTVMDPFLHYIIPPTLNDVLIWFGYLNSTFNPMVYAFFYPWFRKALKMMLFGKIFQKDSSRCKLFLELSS

[5] = cytotoxicity toward NIH3T3 fibroblasts, dose response, counter-screen, cell-based, ATP luminescence, mouse fibroblasts (AID 2010); type: functional;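 also: cells exposed to compound for about 90 hours before reading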
[6] = inhibitors of intracellular T. cruzi replication, confirmation, NIH3T3 host cells, beta-gal luminescence (AID 2044); type: functional, cell-based;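 also: intracellular parasites grown in NIH/3T3 mouse fibroblasts as host cells; luminescent beta-galactosidase reporter signal from transgenic T. cruzi replicating inside host cells; inhibitors lower the luminescence signal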
[7] = molecular target: T1, Trace amine-associated receptor 1; experiment: Counterscreen for agonists of the human trace amine associated receptor 1 (hTAAR1): Fluorescence-based cell-based high throughput dose response assay to identify hTAAR1 agonist that also desensitize TAAR1 receptor response.; type: functional
[8] = molecular target: Albumin (Bos taurus, UniProt P02769); experiment: Counterscreen for inhibitors of T-cell receptor (TCR)-CD3 interaction: Fluorescence-based biochemical high throughput dose response assay to identify inhibitors of T-cell receptor (TCR)-CD3 interaction using a TAMRA-labeled BSA probe.; type: functional
[9] = molecular target: T2, Replicative DNA helicase DnaB (Mycobacterium tuberculosis, UniProt P9WMR3); experiment: DnaB intein splicing inhibitors, dose response, biochemical, cell-free fluorescence (AID 449749); type: functional
T2 sequence (P9WMR3 whole entry): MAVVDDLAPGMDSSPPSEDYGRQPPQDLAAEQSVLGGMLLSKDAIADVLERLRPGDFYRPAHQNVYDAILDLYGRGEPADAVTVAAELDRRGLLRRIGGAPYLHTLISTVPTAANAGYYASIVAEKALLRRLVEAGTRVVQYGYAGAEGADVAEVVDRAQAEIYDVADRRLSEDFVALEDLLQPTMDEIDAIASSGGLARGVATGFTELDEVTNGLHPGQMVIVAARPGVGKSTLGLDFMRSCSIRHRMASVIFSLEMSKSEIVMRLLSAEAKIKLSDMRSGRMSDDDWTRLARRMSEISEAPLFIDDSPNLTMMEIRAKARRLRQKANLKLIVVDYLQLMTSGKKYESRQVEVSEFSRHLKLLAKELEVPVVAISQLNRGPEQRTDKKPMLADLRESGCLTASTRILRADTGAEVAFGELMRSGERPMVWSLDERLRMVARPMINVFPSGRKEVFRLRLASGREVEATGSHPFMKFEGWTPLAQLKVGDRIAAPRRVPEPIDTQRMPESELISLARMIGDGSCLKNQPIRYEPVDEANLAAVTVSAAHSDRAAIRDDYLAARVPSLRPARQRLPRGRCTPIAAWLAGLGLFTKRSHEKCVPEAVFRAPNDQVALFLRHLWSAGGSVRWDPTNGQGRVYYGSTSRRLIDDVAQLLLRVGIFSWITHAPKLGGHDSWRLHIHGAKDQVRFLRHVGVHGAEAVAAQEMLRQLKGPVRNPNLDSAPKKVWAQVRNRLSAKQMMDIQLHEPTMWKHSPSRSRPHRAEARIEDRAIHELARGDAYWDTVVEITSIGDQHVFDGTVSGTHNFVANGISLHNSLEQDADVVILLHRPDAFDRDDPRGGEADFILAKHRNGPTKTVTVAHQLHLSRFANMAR

[10] = NIH-3T3 fibroblast cytotoxicity, dose response, cytotoxicity control, cell-based, fluorescence, Alamar Blue, secondary assay (AID 2327); type: functional;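 also: NIH-3T3 mouse fibroblasts cultured with fluconazole at 8 µg/mL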
[11] = molecular target: T3, Zinc finger protein mex-5 (Caenorhabditis elegans, UniProt Q9XUB2); experiment: MEX-5/TCR-2 RNA interaction inhibitors, dose response, biochemical, C. elegans, fluorescence polarization (AID 1960)
T3 sequence (Q9XUB2 whole entry): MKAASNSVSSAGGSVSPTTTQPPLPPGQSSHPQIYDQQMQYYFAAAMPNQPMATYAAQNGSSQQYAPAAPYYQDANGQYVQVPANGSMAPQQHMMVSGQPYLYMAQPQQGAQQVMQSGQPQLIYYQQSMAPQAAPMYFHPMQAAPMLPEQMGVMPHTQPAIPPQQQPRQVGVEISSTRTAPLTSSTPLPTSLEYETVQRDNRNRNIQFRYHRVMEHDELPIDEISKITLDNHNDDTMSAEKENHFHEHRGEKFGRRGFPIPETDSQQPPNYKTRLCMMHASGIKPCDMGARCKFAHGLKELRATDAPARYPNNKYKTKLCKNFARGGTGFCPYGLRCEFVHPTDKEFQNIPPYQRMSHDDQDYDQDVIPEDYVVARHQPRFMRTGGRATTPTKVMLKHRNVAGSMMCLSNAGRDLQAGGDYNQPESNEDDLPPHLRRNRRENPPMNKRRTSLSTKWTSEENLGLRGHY

[12] = molecular target: T4, Protein RecA (Mycobacterium tuberculosis, UniProt P9WHJ3); experiment: Fluorescence Cell-Free Homogeneous Dose Retest to Identify Inhibitors of RecA-Intein Splicing Activity. [Related pubchem assays (depositor defined):AID2097, AID2223, AID489010, AID492950]; type: functional
T4 sequence (P9WHJ3 whole entry): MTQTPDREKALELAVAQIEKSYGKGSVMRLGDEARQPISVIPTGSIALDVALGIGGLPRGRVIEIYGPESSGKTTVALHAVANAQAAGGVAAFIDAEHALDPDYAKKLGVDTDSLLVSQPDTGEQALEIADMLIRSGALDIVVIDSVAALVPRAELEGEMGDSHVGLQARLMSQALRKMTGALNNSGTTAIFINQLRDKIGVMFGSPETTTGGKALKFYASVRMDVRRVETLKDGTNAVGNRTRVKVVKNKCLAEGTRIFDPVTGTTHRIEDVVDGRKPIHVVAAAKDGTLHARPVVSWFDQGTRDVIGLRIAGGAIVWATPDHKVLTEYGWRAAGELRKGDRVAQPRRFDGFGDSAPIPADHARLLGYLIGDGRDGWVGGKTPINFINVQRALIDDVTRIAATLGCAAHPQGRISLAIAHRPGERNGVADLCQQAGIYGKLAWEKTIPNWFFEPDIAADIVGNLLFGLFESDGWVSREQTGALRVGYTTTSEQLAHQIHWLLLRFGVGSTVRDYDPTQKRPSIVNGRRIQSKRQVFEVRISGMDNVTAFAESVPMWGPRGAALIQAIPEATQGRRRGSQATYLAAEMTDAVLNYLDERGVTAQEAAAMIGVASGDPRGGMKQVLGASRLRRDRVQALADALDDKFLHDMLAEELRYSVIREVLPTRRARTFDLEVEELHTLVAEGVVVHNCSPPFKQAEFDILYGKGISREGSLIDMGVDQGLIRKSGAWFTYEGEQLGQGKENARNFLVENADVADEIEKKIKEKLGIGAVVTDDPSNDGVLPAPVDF

[13] = molecular target: T5, RNA-binding protein pos-1 (Caenorhabditis elegans, UniProt G5EF15); experiment: inhibitors of POS-1/mex-3 RNA binding, dose response, biochemical, fluorescence polarization (AID 1964);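 also: purified POS-1 fused to maltose binding protein made in E. coli; potency of compounds blocking POS-1 binding to fluorescent RNA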
T5 sequence (G5EF15 whole entry): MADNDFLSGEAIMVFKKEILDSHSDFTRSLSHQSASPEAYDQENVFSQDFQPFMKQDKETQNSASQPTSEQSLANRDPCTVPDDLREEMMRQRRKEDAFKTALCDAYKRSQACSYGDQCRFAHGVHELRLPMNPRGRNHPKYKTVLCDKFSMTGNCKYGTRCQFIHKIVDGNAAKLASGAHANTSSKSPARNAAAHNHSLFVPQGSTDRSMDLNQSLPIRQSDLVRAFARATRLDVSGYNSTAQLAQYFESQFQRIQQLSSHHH

[14] = C. albicans growth with fluconazole, confirmation, fluorescence, retest (AID 2467); type: functional, cell-based
[15] = cells; type: functional
[16] = molecular target: T6, Mannose-6-phosphate isomerase (Homo sapiens, UniProt P34949); experiment: human PMI inhibitors, high substrate, primary screen, biochemical, fluorescence intensity, high mannose 6-phosphate (AID 1220)
T6 sequence (P34949 whole entry): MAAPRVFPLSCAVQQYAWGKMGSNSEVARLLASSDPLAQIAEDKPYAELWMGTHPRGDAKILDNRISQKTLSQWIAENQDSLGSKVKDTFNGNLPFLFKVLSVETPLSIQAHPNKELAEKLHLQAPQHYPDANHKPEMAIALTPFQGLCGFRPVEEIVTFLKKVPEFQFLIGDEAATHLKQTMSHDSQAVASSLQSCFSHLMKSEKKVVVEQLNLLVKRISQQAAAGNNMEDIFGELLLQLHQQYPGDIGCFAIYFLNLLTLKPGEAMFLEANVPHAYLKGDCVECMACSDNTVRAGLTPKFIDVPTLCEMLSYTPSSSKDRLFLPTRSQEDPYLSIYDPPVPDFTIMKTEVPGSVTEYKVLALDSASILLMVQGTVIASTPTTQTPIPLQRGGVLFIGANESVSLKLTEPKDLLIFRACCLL

[17] = molecular target: T7, Aminopeptidase N (Plasmodium falciparum FcB1/Columbia, UniProt O96935); experiment: P. falciparum M1AAP inhibitors, biochemical, fluorogenic H-Leu-NHMec substrate, 1536-well (AID 1445); set-up: species or system Plasmodium falciparum 3D7, 3D7
T7 sequence (O96935 whole entry): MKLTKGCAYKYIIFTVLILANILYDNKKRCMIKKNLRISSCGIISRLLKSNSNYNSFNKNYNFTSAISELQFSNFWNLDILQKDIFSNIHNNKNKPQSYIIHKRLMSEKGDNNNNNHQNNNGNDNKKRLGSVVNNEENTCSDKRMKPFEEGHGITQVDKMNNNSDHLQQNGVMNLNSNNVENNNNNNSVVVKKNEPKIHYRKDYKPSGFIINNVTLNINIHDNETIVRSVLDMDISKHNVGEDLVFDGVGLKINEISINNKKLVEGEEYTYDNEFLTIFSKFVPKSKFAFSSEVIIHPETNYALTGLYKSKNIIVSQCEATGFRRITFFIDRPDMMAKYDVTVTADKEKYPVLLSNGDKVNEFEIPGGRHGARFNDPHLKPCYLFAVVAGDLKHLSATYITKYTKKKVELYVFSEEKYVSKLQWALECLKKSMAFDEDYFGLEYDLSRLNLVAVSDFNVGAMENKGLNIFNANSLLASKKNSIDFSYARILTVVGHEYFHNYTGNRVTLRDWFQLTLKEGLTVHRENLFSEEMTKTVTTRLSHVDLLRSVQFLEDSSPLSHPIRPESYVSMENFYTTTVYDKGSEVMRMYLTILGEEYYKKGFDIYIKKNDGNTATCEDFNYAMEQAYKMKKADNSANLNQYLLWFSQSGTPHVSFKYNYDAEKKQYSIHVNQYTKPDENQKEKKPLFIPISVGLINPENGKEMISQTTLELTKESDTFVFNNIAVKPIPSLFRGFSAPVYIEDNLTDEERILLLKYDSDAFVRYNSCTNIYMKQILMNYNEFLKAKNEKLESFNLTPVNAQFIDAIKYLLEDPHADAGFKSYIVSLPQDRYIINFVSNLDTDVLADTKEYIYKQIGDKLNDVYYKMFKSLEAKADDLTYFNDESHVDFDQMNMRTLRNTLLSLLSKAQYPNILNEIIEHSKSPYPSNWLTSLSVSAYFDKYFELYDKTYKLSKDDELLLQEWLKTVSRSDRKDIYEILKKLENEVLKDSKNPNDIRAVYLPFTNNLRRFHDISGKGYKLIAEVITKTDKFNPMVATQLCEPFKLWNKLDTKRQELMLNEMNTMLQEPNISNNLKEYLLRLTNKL

[18] = tested on: Streptococcus; experiment: Group A Streptococcus viability loss, dose response, counter-screen for streptokinase expression inhibitor project, luminescence, BacTiterGlo (AID 1915); type: functional, organism-based;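 also: potency for reduction of bacterial viability or growth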
[19] = tested on: Streptococcus sp. 'group A'; experiment: growth inhibition of control SK(-) GAS strain, dose response, counter-screen for streptokinase expression inhibitor project, luminescence, kanamycin, BacTiterGlo, confirmation (AID 1900); type: functional, organism-based

Chain of Albumin (P02769 whole entry): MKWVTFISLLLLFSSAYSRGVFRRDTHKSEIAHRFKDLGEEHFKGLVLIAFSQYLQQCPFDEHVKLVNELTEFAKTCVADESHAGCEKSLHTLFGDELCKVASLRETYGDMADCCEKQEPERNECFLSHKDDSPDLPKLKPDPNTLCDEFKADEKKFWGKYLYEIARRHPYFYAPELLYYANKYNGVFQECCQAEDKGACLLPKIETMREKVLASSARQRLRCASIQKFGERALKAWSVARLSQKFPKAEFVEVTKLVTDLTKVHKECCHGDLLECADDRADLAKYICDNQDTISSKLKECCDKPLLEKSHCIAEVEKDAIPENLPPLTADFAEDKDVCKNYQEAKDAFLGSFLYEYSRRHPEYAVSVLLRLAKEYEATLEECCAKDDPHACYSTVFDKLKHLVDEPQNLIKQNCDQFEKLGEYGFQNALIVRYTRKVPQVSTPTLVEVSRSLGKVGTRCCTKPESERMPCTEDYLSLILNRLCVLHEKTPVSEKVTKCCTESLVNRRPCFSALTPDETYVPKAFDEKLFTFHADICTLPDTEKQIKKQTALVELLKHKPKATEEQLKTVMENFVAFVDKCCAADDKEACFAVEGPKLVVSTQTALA

## C=CCNC(S)=NNc1nc(O)c2c(n1)-c1ccccc1CC21CCCCC1
[1]
  IC50: 73.1 µM (inactive)

## Cc1c(Cl)cccc1Nc1nc(NCCO)c2ccccc2n1
[2]
  IC50: > 29.9 µM (inactive)
[3]
  EC50: > 29.9 µM (inactive)
[4]
  EC50: 2.94 µM (active)
[5]
  EC50: > 60 µM (not active)
[6]
  EC50: 1.2 µM (active)
[7]
  IC50: 6.83 µM (active)

## O=C(CCNC(=O)c1ccc(Br)cc1)NNC(=O)c1ccccc1O
[8]
  IC50: > 94.1 µM (inactive)

## CC(C)c1cc(C(=O)NN=C(S)NCc2ccco2)c(O)c(C(C)C)c1
[1]
  IC50: 18.8 µM (inactive)

## COc1ccc(NC(=O)NNC(=O)c2ccc3ccccc3c2O)cc1OC
[8]
  IC50: > 94.1 µM (inactive)
[1]
  IC50: > 122 µM (inactive)

## O=C(NNC(=O)c1ccc2ccccc2c1O)c1ccccc1Cl
[8]
  IC50: > 94.1 µM (inactive)
[9]
  AC50: 30 µM (active)
[10]
  EC50: > 160 µM (inactive)
[11]
  EC50: 2.31 µM (inconclusive)
[1]
  IC50: > 122 µM (inactive)
[12]
  EC50: > 380 µM (inactive)
[13]
  EC50: 15.4 µM (inconclusive)
[14]
  EC50: > 38 µM (not active)

## Cc1ccc(N2CN(CCc3ccccc3)CN=C2S)cc1
[2]
  IC50: > 29.9 µM (inactive)
[3]
  EC50: > 29.9 µM (inactive)
[4]
  EC50: 1.16 µM (active)
[7]
  IC50: 7.74 µM (active)

## CC1CCCN(CCC(=O)c2ccc(Br)cc2)C1 (stereo not given)
[2]
  IC50: > 29.9 µM (inactive)
[3]
  EC50: > 29.9 µM (inactive)
[4]
  EC50: 1.67 µM (active)
[15]
  IC50: 15.2 µM (active)
[16]
  IC50: > 50 µM (not active)
[7]
  IC50: 20.1 µM (inactive)

## Cn1ccc2c(N3CCCCCCC3)cc3c(c21)C1CCC3O1 (stereo not given)
[1]
  IC50: > 122 µM (inactive)

## CCCCNC(=S)N/N=C/c1cccc(OCC)c1O
[1]
  IC50: > 122 µM (inactive)

## O=C(CP(=O)(c1ccccc1)c1ccccc1)N/N=C/c1cc(Br)cc(Br)c1O
[8]
  IC50: > 94.2 µM (inactive)
[17]
  IC50: 12.4 µM (active)
[18]
  EC50: 2.32 µM (active)
[19]
  EC50: 0.8 µM (active)
